Data reported in patent US7534455B2, “Herbal composition PHY906 and its use in chemotherapy” (Yale University, priority 2000, dated 2009).
Where two headings read alike, the source gives them in different places. Values belong to the compound of their own block, whether it stands above or below them.

Assays:
[1] = system: pancreatic cancer; conditions: monotherapy; cited from earlier work
[2] = Pharmacokinetics of gemcitabine (dFdC) and dFdU in plasma of PAN02 bearing BDF-1 mice; assay type: in vivo; conditions: for AUC, dFdC + PHY906: PHY906 500 mg/kg 30 min before gemcitabine; for AUC, dFdC alone: gemcitabine 600 mg/kg
Method: Plasma Handling: The mouse plasma was separated from the blood by centrifugation at 10,000 g at 4° C. for 10 min.
b) Gemcitabine-containing plasma: The plasma (50 μl) was extracted with 200 μl of acetonitrile (ACN) in the presence of 5 μl of 0.1 mM AZT as an internal standard. After centrifugation, the supernatant was dried by a Speedvac, reconstituted with 100 μl of solution containing 2.5% ACN and 97.5% of 15 mM ammonium acetate (pH 5.0).
The resultant analyte was then analyzed by HPLC with UV absorption and/or radioactivity.
To determine, for a future clinical trial, if PHY906 would change the metabolism of gemcitabine, a pharmacokinetics analysis in mice bearing pancreatic cancer was performed. Mice were divided into three sets of 15: gemcitabine only, gemcitabine plus PHY906, and vehicle control. Each mouse in the set was bled twice at two different time points. Plasma was processed as described in Materials and Methods and analyzed by HPLC with radioactivity confirmation of peak identity and quantitation.

[3] = system: PAN02 murine pancreatic carcinoma; experiment: Tumor growth in PAN02 murine pancreatic carcinoma model; assay type: in vivo, mouse; conditions: C57/BL6 mice; 150 mg/kg
Method: Tumor Cells: The human hepatocellular carcinoma HepG2, human PANC-1 pancreatic cancer and mouse Colon 38 colorectal cancer cell lines were purchased from the American Type Culture Collection (Rockville, Md.). […] Small chunk of mouse PAN02 tumor from NCI was suspended in PBS solution as a total volume of 0.8 ml. The cells were implanted into the left flank of mice. Tumor transplantation from mice to mice was performed when the tumor reached 1500-2000 mm^3. Mouse Tumor Model: Tumor cells (5×10^6 cells in 0.1 ml PBS) were transplanted subcutaneously into the left flank of mice. After 14 days, tumor ranging in size from 300-500 mm^3 was selected for drug studies. The length and width of the each tumor was measured with sliding calipers. The tumor size was estimated according to the following formula: Tumor size (mm^3)=length (mm)×width (mm)^2/2. Antitumor Activity of Chemotherapeutic Agents in the Presence or Absence of PHY906: […] The first day of drug treatment was defined as day 1. […] Chemotherapeutic agents were given either intraperitoneally or orally at the dose and schedule indicated. The tumor size, body weight, and mortality of the mice were monitored daily.

[4] = Host toxicity (body weight loss, mortality, blood cell counts) in chemotherapy treated BDF-1 mice bearing Colon 38 tumor; assay type: in vivo
Method: (§1) Anti-Tumor Studies: Murine Colon 38 (1-2×10^6 cells in 0.1 ml PBS) or human HepG2 cells (1-2×10^6 cells in 0.1 ml PBS) were transplanted subcutaneously into BDF1 or NCr athymic nude mice, respectively. The length and width of the tumors were measured daily with sliding calipers. The tumor weight was estimated according to the following formula (Pizzorno G, Wiegand R, Lentz S, et al., Cancer Res. 52:1660-1665 (1992)): Tumor weight (mg)=length (mm)×width (mm)^2/2.
(§2) After 10 to 14 days, mice (five animals/group) with tumor weights ranging from 150-200 mg were selected for drug studies (Guo X, Lerner-Tung M, Chen H X, et al., Biochem Pharmacol 49:1111-1116 (1995)). Mice were sacrificed when the tumor size reached 10% of body weight. PHY906 was administered orally either alone or with anti-cancer chemotherapeutic agents. The effect of PHY906 on antitumor efficacy and the reduction of toxicity by the agents were evaluated. CPT-11 was given intraperitoneally (i.p.) 30 min after PHY906 administration with the selected dose. The regimen of FU/LV combination therapy was given as follows:
The first day of treatment was defined as day 0. PHY906 was given orally twice a day (10 am and 3 pm) for either 4 or 8 days beginning on day 0. For the control group, mice were administrated a vehicle, either PBS for i.p. or H2O for p.o. (oral administration). Animals were monitored for mortality, weight loss, and tumor size daily.
Blood Cell Counts: Blood (20 μl) was taken from mice on days 0, 3, 6, 9 and 12 with micro-capillary tubes. Blood was then be diluted to 200 μl with normal saline (0.85% Sodium Chloride). WBC, RBC and platelets were counted by a BAKER SYSTEM 9100™ […] (Biochem ImmunoSystems Inc., Allentown, Pa. 18103-9562).
PHY906 was evaluated as a modulator of CPT-11 therapy for toxic side effects in mice inoculated with Colon 38 tumor cells. Based on the previous findings (Example 2), a single bolus dose of 400 mg/kg CPT-11 was selected to study the effect of PHY906 on weight-loss associated with toxicity of CPT-11. To evaluate whether PHY906 impairs the antitumor efficacy of CPT-11, mice were implanted subcutaneously with Colon 38 tumor cells. Ten to 14 days after inoculation, mice were treated with CPT-11 (400 mg/kg, i.p.) in the absence or presence of PHY906, which was given orally twice a day at varying doses (125 mg/kg, 250 mg/kg, and 500 mg/kg). PHY906 treatment was continued at the dose indicated for 8 consecutive days.
Mice were divided into four groups with different treatment regimens: Group (A) treatment with vehicle; Group (B) treatment with a single dose of 400 mg/kg CPT-11 by i.p. injection; Group (C) treatment with PHY906 (500 mg/kg/b.i.d.) alone; or Group (D) treatment with a single dose of 400 mg/kg CPT-11 plus 500 mg/kg/b.i.d. PHY906 for 4 or 8 days. The sequence of each treatment regimen appears in Materials and Methods. As depicted in Table 9, 35 of 35 tumor-bearing mice (100%) from Group A and 15 of 15 mice (100%) from Group C survived treatment with either vehicle or PHY906 alone for 4 or 8 days, indicating no or very low toxicity for PHY906.

[5] = system: Colon 38 tumor; experiment: Tumor growth in BDF-1 mice bearing Colon 38 tumor; assay type: in vivo, mouse; conditions: CPT-11 treated mice; formulation 1 g/kg, bid, 8 days
Method: as §1, §2
(A) treatment with FU/LV alone: first dose of LV (50 mg/kg, i.p.), one hour later the second dose of LV (50 mg/kg; i.p.), then immediately given FU (100 mg/kg, i.p.) […]
The first day of treatment was defined as day 0. […] Animals were monitored for mortality, weight loss, and tumor size daily.

Cmax ([2]; BDF-1, mouse, plasma, oral, 600 mg/kg, Radioactivity detection, read-out: Cmax, dFdC + PHY906): 400 µg/mL
Cmax ([2]; BDF-1, mouse, plasma, oral, 600 mg/kg, Radioactivity detection, read-out: Cmax, dFdC alone): 360 µg/mL
Tmax ([2]; BDF-1, mouse, plasma, oral, 600 mg/kg, Radioactivity detection, read-out: Tmax, dFdC alone (converted)): 15 min
half-life ([2]; BDF-1, mouse, plasma, oral, 600 mg/kg, Radioactivity detection, read-out: T½, dFdC + PHY906): 34.2 min
half-life ([2]; BDF-1, mouse, plasma, oral, 600 mg/kg, Radioactivity detection, read-out: T½, dFdC alone): 26.5 min
Cmax ([2]; BDF-1, mouse, plasma, oral, 600 mg/kg, UV detection, read-out: Cmax, dFdC alone): 230 µg/mL
half-life ([2]; BDF-1, mouse, plasma, oral, 600 mg/kg, UV detection, read-out: T½, dFdC alone): 27 min
Tmax, dFdC + PHY906 ([2]; Radioactivity detection): 15 min
AUC, dFdC + PHY906 ([2]; Radioactivity detection): 25.0 mg·min/mL
AUC, dFdC alone ([2]; Radioactivity detection): 15.6 mg·min/mL
Cmax, dFdC + PHY906 ([2]; UV detection): 250 µg/mL
Tmax, dFdC + PHY906 ([2]; UV detection): 15 min
Tmax, dFdC alone ([2]; UV detection): 15 min
T½, dFdC + PHY906 ([2]; UV detection): 31.0 min
AUC, dFdC + PHY906 ([2]; UV detection): 15.4 mg·min/mL
AUC, dFdC alone ([2]; UV detection): 10.8 mg·min/mL
Levels in circulation in the presence or absence of PHY906 ([2]; plasma): not a dramatic difference
SMILES: Nc1ccn([C@@H]2O[C@H](CO)[C@@H](O)C2(F)F)c(=O)n1 [dFdC, 2′-deoxy-2′,2′-difluoro-cytidine]
Overall survival time [1]: 4-6 months
Response rate in patients [1]: 6-11%
Antitumor activity, gemcitabine alone [3]: did not have antitumor activity

SMILES: CN(C)C(=O)C(CCN1CCC(O)(c2ccc(Cl)cc2)CC1)(c1ccccc1)c1ccccc1 [Loperamide]
Protecting against body weight loss or enhancing the antitumor effects of CPT-11 ([4]; CPT-11 treated BDF-1 mice bearing Colon 38): completely ineffective
Protection from Body Weight Loss ([4]; CPT-11 treated mice, formulation 1 g/kg (dry weight incl. excipient), bid, 8 days): No Change
Antitumor Effect [5]: No Change
